From patent US9968553B1, “Enalapril compositions” (Silvergate Pharmaceuticals, Inc., priority 2012, dated 2018)

Experiment: Reconstitution studies in 150 mL Ora-Sweet SF syrup (visual inspection)
Type: physicochemical
Conditions: 150 mL Ora-Sweet SF sugar-free flavored syrup
Method: The scaled-up enalapril and mannitol powder compositions (Enalapril Powder Composition A and the like) were examined in reconstitution studies where 150 mL Ora-Sweet® SF sugar-free flavored syrup was to the powder compositions.
Reconstitution of Neat Enalapril Powder in Bottle: Due to the ‘clouding’ in the reconstitution as well as the uniformity issues in the scale-up studies of Enalapril Powder Composition A, neat enalapril, i.e., drug alone, without any excipients, was examined for scale-up bottle filling and subsequent reconstitution.

Question: Which “Reconstitution, visual observation of dissolution” value does the source give for `CCOC(=O)[C@H](CCc1ccccc1)N[C@@H](C)C(=O)N1CCC[C@H]1C(=O)O` [neat enalapril, enalapril] here?
Answer: The value was “did not dissolve”.
